{
  "source": "patent US5965539A",
  "about": "“Inhibitors of prenyl transferases” (Univeristy of Pittsburgh, priority 1996, dated 1999)",
  "key": {"FTase [1]": {"molecular_target": "T1, FTase (Homo sapiens, UniProt P49356)", "T1 construct": "FTase and GGTase I activities from 60,000×g supernatants of human Burkitt lymphoma (Daudi) cells; endogenous in cells; host or cells: human Burkitt lymphoma (Daudi) cells, 60,000xg supernatant (partially purified)", "T1 sequence (P49356 whole entry)": "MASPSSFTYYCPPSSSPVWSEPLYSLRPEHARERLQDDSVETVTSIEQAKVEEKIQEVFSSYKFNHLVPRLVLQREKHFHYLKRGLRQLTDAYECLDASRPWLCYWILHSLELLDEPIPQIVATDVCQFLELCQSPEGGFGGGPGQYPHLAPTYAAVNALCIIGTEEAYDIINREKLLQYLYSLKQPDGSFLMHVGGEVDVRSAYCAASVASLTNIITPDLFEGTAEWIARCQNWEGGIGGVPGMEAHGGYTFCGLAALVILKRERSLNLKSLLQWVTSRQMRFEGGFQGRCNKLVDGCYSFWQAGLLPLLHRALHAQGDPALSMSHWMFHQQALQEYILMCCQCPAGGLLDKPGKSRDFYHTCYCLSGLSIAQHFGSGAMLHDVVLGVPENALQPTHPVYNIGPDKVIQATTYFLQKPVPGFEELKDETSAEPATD", "assay": "FTase activity assay: transfer of [3H]farnesyl from FPP to recombinant H-Ras-CVLS, Daudi 60,000xg supernatant", "type": "biochemical", "conditions": "for GG/F: ratio GGTase I IC50 / FTase IC50; for pIC50: read-out: FTase IC50; for Selectivity: FTase over GGTase I", "procedure": "FTase and GGTase I activities from 60,000×g supernatants of human Burkitt lymphoma (Daudi) cells (ATCC, Rockville, Md., USA) were assayed as described previously for FTase (41). Briefly, 100 μg of the supernatant was incubated in 50 mM Tris, pH 7.5, 50 μM ZnCl2, 20 mM KCl and 1 mM dithiothreitol (DTT).\nHuman Burkitt lymphoma (Daudi) cells (ATCC, Rockville, Md.) were grown in suspension in RPMI 1640 medium containing 10% fetal bovine serum (FBS) and 1% Pen-Strep in a humidified 10% CO2 incubator at 37° C. The cells were harvested and sonicated in 50 mM Tris, pH 7.5, 1 mM EDTA, 1 mM EGTA, 25 μg/ml leupeptin, 1 mM phenylmethylsulfonyl fluoride. Homogenates were then spun at 12,000×g and the resulting supernatant further spun at 60,000×g. The supernatant was assayed for both FTase and GGTase I. Briefly, 100 μg of the supernatants was incubated in 50 mM Tris, pH 7.5, 50 μM ZnCl2, 20 mM KCl, 3 mM MgCl2 and 1 mM DTT. […] FPP (625 nM; 16.3 Ci/mmol). For GGTase assays, the reaction was also incubated for 30 minutes at 37° C. but with recombinant H-Ras-CVLL (5 μM) and [^3 H] GGPP (525 nM; 19.0 Ci/mmol). The reaction was stopped and passed through glass fiber filters to separate free and incorporated label. For inhibition studies, the peptidomimetics were premixed with FTase or GGTase I prior to adding the remainder of the reaction mixture. […] Recombinant H-Ras-CVLL was prepared from bacteria (32).\nFTase and GGTase I activities from 60,000×g supernatants of human Burkitt lymphoma (Daudi) cells (ATCC, Rockville, Md.) were assayed exactly as described previously for FTase (41)."}, "Ras processing": {"system": "Ras processing", "assay": "Ras processing assay in EJ3 / Ras transformed 3T3 cells (FIG. 16A)", "type": "cell-based", "procedure": "EJ3 cells were treated with peptidomimetics or vehicle for 20-24 h. Cells were lysed in lysis buffer (10 mM Na2 HPO4, pH 7.25, 150 mM NaCl, 0.1% sodium dodecyl sulfate, 1% Triton X-100, 12 mM sodium deoxycholate, 1 mM NaF, 0.2% NaN3, 2 mM PMSF, 25 μg/ml leupeptin) and the lysates were cleared by spinning at 13,000 rpm for 15 minutes. Ras protein was immunoprecipitated overnight at 4° C. with 50 μg of anti-Ras antibody (Y13-259; hybridoma from ATCC, Rockville, Md.) along with 30 μl Protein A-agarose goat anti-rat IgG complex (oncogene Science, Uniondale, N.Y.). Immunoprecipitates were washed 4 times with lysis buffer and the bound proteins were released by heating for 5 minutes in 40 μl SDS-PAGE sample buffer and subsequently electrophoresed on a 12.5% SDS-PAGE."}, "H-Ras processing": {"system": "H-Ras processing", "assay": "Ras processing assay in H-RasF cells (NIH 3T3 transformed with oncogenic H-Ras-CVLS), immunoblot", "type": "cell-based", "conditions": "whole cells; read-out: H-Ras processing IC50", "procedure": "H-RasF cells (45) were seeded on day 0 in 100 mm Dishes (costar) in Dulbecco's modified Eagles medium (GIBCO) and allowed to grow to 40-60% confluency. […] On day 3, cells were washed one time with ice cold PBS and were collected and lysed by incubation for 30-60 min on ice in lysis buffer (41). Lysates were cleared (14,000 rpm, 4° C., 15 min) and supernatants collected. Equal amounts of lysate were separated on a 12.5% SDS-PAGE, transfered to nitrocellulose, and a western blot performed using a anti-Ras antibody (Y13-238, ATCC) or anti-Rap1A antibody (Santa Cruz Biotechnology, Santa Cruz, Calif.). Antibody reactions were visualized using peroxidase-conjugated goat anti-rat IgG for Y13-238 and peroxidase-conjugated goat anti-rabbit IgG for Rap1A and an enhanced chemiluminescence detection system (ECL; Amersham Corp.)\nH-Ras cells (45) and K-Ras4B Cells (32) were kind gifts from Dr. Channing Der and Dr. Adrienne Cox (University of North Carolina, Chapel Hill). Means of obtaining these cell lines will be easily recognized by the skilled practitioner. Cells were seeded on day 0 in 100 mm dishes in Dulbecco's modified Eagles medium supplemented with 10% calf serum and 1% penicillin-streptomycin. […] On day 3, cells were washed and lysed in lysis buffer containing 50 mM HEPES, pH 7.5, 10 mM NaCl, 1% TX-100, 10% glycerol, 5 mM MgCl2, 1 mM EGTA, 25 μg/ml leupeptin, 2 mM PMSF, 2 mM Na3 VO4, 1 mg/ml soybean trypsin inhibitor, 10 μg/ml aprotinin, 6.4 mg/ml Sigma-104® phosphatase substrate. Lysates were cleared (14,000 rpm, 4° C., 15 min) and equal amounts of protein were separated on a 12.5% SDS-PAGE, transferred to nitrocellulose, and immunoblotted using an anti-Ras antibody (Y13-259, ATCC) or an anti-RapIA antibody (SC-65, Santa Cruz Biotechnology, Santa Cruz, Calif.). Antibody reactions were visualized using either peroxidase-conjugated goat anti-rat 1 gG (for Y13-259), or peroxidase-conjugated goat anti-rabbit 1 gG (for Rap1A) and an enhanced chemiluminescence detection (ECL, Amersham Corp.), as described previously (41)."}, "GGTase I": {"molecular_target": "T2, GGTase I (Homo sapiens, UniProt P53609)", "T2 construct": "FTase and GGTase I activities from 60,000×g supernatants of human Burkitt lymphoma (Daudi) cells; endogenous in cells; host or cells: human Burkitt lymphoma (Daudi) cells, 60,000xg supernatant (partially purified)", "T2 sequence (P53609 whole entry)": "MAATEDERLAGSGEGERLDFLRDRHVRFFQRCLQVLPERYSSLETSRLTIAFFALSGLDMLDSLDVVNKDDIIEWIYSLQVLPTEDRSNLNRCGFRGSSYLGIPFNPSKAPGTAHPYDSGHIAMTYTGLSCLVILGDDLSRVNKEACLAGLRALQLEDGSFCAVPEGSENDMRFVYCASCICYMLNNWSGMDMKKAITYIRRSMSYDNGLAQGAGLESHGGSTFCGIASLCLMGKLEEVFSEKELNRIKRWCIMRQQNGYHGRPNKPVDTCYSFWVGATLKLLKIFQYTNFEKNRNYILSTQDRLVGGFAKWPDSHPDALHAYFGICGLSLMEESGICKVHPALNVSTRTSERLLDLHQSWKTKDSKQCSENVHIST", "assay": "GGTase I activity assay: transfer of [3H]geranylgeranyl to recombinant H-Ras-CVLL, Daudi 60,000xg supernatant", "type": "biochemical", "procedure": "FTase and GGTase I activities from 60,000×g supernatants of human Burkitt lymphoma (Daudi) cells (ATCC, Rockville, Md., USA) were assayed as described previously for FTase (41). Briefly, 100 μg of the supernatant was incubated in 50 mM Tris, pH 7.5, 50 μM ZnCl2, 20 mM KCl and 1 mM dithiothreitol (DTT). The reaction was incubated at […] for 30 min with recombinant Ha-Ras-CVLS (11 μM) and [^3 H]FPP (625 nM; 16.3 Ci/mmol) for FTase, and recombinant Ha-Ras-CVLL (5 μM) and [^3 H]geranylgeranylpyrophosphate (525 nM; 19.0 Ci/mmol) for GGTase I. The peptidomimetics were mixed with FTase and GGTase before adding to the reaction mixture.\nHuman Burkitt lymphoma (Daudi) cells (ATCC, Rockville, Md.) were grown in suspension in RPMI 1640 medium containing 10% fetal bovine serum (FBS) and 1% Pen-Strep in a humidified 10% CO2 incubator at 37° C. The cells were harvested and sonicated in 50 mM Tris, pH 7.5, 1 mM EDTA, 1 mM EGTA, 25 μg/ml leupeptin, 1 mM phenylmethylsulfonyl fluoride. Homogenates were then spun at 12,000×g and the resulting supernatant further spun at 60,000×g. The supernatant was assayed for both FTase and GGTase I. Briefly, 100 μg of the supernatants was incubated in 50 mM Tris, pH 7.5, 50 μM ZnCl2, 20 mM KCl, 3 mM MgCl2 and 1 mM DTT. For FTase assays, the reaction was incubated at 37° C. for 30 minutes with recombinant H-Ras-CVLS (11 μM) and [^3 H] FPP (625 nM; 16.3 Ci/mmol). For GGTase assays, the reaction was also incubated for 30 minutes at 37° C. but with recombinant H-Ras-CVLL (5 μM) and [^3 H] GGPP (525 nM; 19.0 Ci/mmol). The reaction was stopped and passed through glass fiber filters to separate free and incorporated label. For inhibition studies, the peptidomimetics were premixed with FTase or GGTase I prior to adding the remainder of the reaction mixture. Recombinant H-Ras-CVLS was prepared as described previously (26) from bacteria (31). Recombinant H-Ras-CVLL was prepared from bacteria (32).\nFTase and GGTase I activities from 60,000×g supernatants of human Burkitt lymphoma (Daudi) cells (ATCC, Rockville, Md.) were assayed exactly as described previously for FTase (41). Inhibition studies were performed by determining the ability of Ras CAAX peptidomimetics to inhibit the transfer of [^3 H]-farnesyl and [^3 H]-geranylgeranyl from [^3 H]FPP and [^3 H]GGPP to H-ras-CVLS and H-Ras-CVLL, respectively (41)."}, "Rap1A processing": {"system": "Rap1A processing", "assay": "Rap1A processing assay in EJ3 / Ras transformed 3T3 cells (FIG. 16B)", "type": "cell-based", "procedure": "For Rap1A processing assays, 50 μg of cell lysates were electrophoresed as described above for Ras processing and transferred to nitrocellulose. These membranes were then blocked with 5% milk in Tris-buffered saline, pH 8.0, containing 0.5% Tween-20 and probed with anti-Rap1A (1 μg/ml in 5% milk/TBS-T; Santa Cruz Biotechnology, Santa Cruz, Calif.). Antibody reactions were visualized using peroxidase-conjugated goat anti-rabbit IgG (Oncogene) and ECL chemiluminescence as described above."}, "FTase [2]": {"molecular_target": "T1, FTase", "assay": "Peptidomimetics farnesylation assay (silica gel TLC)", "type": "biochemical", "conditions": "Table 4; substrate for farnesylation, TLC", "procedure": "The ability of human Burkitt lymphoma (Daudi) FTase to farnesylate peptides and peptidomimetics was determined as described previously (34, 35). Briefly, 25 μl of reaction mixture containing 50 μg of 60,000×g supernatants and 20 μM peptidomimetic in 50 mM Tris, pH 7.5, 50 μM ZnCl2, 20 mM KCl, 3 mM MgCl2, 1 mM DTT and 0.2% octylβ-D-glucoside was incubated for 30 minutes at 37° C., then spotted onto silica gel G TLC sheets (20×20 cm, Brinkmann Instruments), and developed with n-propanol/5 N ammonium hydroxide/water (6:1:1). The dried sheets were sprayed with En^3 Hance (DuPont NEN) and exposed to x-ray film for detection of [^3 H] farnesylated products."}, "[3]": {"conditions": "Table 1, read-out: GGTase I IC50"}, "[4]": {"conditions": "Table 4, read-out: GGTase-I IC50"}},
  "note": "pIC50: −log10 of the molar value. Read-outs that look alike come from different tables or passages of the source.",
  "data": [
    {"smiles": "CSCC[C@H](NC(=O)c1ccc(NC[C@@H](N)CS)cc1)C(=O)O", "note": "[FTI-249, 4-N-[2(R)-Amino-3-mercaptopropyl]aminobenzoyl methionine]", "values": [
      {"measurement": "selectivity for FTase over GGTase I", "setting": "FTase [1]", "result": 15, "unit": "fold"},
      {"measurement": "GG/F", "setting": "FTase [1]; Table 1", "result": 15},
      {"measurement": "pIC50", "setting": "FTase [1]; Table 1", "result": 6.57},
      {"measurement": "Selectivity", "setting": "FTase [1]; Table 4", "result": 15},
      {"measurement": "pIC50", "setting": "FTase [1]; Table 4", "result": 6.52},
      {"measurement": "pIC50", "setting": "FTase [1]", "result": 6.52},
      {"measurement": "inhibition of Ras processing", "setting": "Ras processing; 200 μM", "result": "did not inhibit Ras processing"},
      {"measurement": "inhibition of Ras processing", "setting": "Ras processing; FIG. 16A", "result": "did not inhibit Ras processing"},
      {"measurement": "pIC50", "setting": "H-Ras processing", "result": 4.00},
      {"measurement": "pIC50", "setting": "GGTase I; [3]", "result": 5.40},
      {"measurement": "pIC50", "setting": "GGTase I; [4]", "result": 5.36}
    ]},
    {"smiles": "COC(=O)[C@H](CCSC)NC(=O)c1ccc(NC[C@@H](N)CS)cc1", "note": "[FTI-254, 4-N-[2(R)-Amino-3-mercaptopropyl]aminobenzoyl methionine methyl ester]", "values": [
      {"measurement": "GG/F", "setting": "FTase [1]; Table 1", "result": 19},
      {"measurement": "pIC50", "setting": "FTase [1]; Table 1", "result": 6.00},
      {"measurement": "inhibition of Ras processing", "setting": "Ras processing; 200 μM", "result": "inhibited FTase"},
      {"measurement": "pIC50", "setting": "GGTase I; [3]", "result": 4.72}
    ]},
    {"smiles": "Cc1cccc(-c2ccc(NC[C@@H](N)CS)cc2)c1", "note": "[FTI-263, 4-N-[2(R)-Amino-3-mercaptopropyl]amino-3'-methylbiphenyl]", "values": [
      {"measurement": "inhibition of Rap1A processing", "setting": "Rap1A processing", "result": "did not inhibit Rap1A processing"},
      {"measurement": "Substrate", "setting": "FTase [2]", "result": "no"},
      {"measurement": "Selectivity", "setting": "FTase [1]; Table 4", "result": 141},
      {"measurement": "pIC50", "setting": "FTase [1]; Table 4", "result": 6.15},
      {"measurement": "pIC50", "setting": "GGTase I; [4]", "result": "< 4.00"}
    ]},
    {"smiles": "N[C@@H](CS)CNc1ccc(-c2ccc(C(=O)O)cc2)cc1", "note": "[FTI-271, 4-N-[2(R)-Amino-3-mercaptopropyl]amino-4'-carboxybiphenyl]", "values": [
      {"measurement": "inhibition of Rap1A processing", "setting": "Rap1A processing", "result": "did not inhibit Rap1A processing"},
      {"measurement": "Substrate", "setting": "FTase [2]", "result": "no"},
      {"measurement": "pIC50", "setting": "GGTase I; [4]", "result": "< 4.00"}
    ]},
    {"smiles": "CC[C@H](C)C(=O)O[C@H]1C[C@@H](C)C=C2C=C[C@H](C)[C@H](CC[C@@H]3C[C@@H](O)CC(=O)O3)[C@H]21", "note": "[lovastatin, reference compound]", "values": [
      {"measurement": "inhibition of Rap1A processing", "setting": "Rap1A processing", "result": "inhibited the processing of Rap1A"},
      {"measurement": "inhibition of Ras processing", "setting": "Ras processing; FIG. 16A", "result": "inhibited Ras processing"}
    ]}
  ]
}
